Square brackets hold non-standard residues; d marks the D form. Peptide text beside a SMILES is read from it. pS = N[C@@H](COP(=O)(O)O)C(=O)O
Tests used:
[1] = Sequestration of calcium phosphate by the peptide; format: physicochemical; details: 10mg/ml solution at pH 7.0; metastable supersaturated solution
Description: The active peptides can sequester calcium phosphate and other salts of divalent metal ions. One mole of T1 binds 16 mole of CaHPO₄ such that a 10mg/ml solution of T1 at pH 7.0 can solubilize 60mM CaHPO₄ producing a metastable supersaturated solution with respect to calcium phosphate species. With chloride as the counter ion one mole of T1 binds only 5 mole of Ca⁺⁺ binding only to serine phosphates. One mole of T1 with about 16 mole of CaHPO₄ bound (M.W. 4883) will henceforth be referred to as calcium phosphate T1.

Intra-Oral Caries Test = format: in vivo; details: plaque exposed twice a day to the peptide T1 solution (1.8% w/v calcium phosphate T1)
Description: The anticariogenicity of phosphopeptide T1 was determined using a modification of the intra-oral caries test of Koulourides and Ostrom (Caries Res. 10:442-482, 1976). Enamel slabs were inset in a removable intra-oral appliance to simulate an approximal area. This was done on both sides of the removable appliance (left and right). The appliance was worn to allow plaque accumulation in the simulated approximal areas. Eight times a day the appliance was removed and placed in a solution at 37°C. The solution was 2% w/v sucrose, 2% w/v glucose, 140 mM KCl, 20mM NaCl at pH 7.0. Twice a day the right side enamel slabs received exposure to a solution containing 1.8% w/v calcium phosphate T1 in 140 mM KCl, 20 mM NaCl at pH 7.0, while the left side received only the salt solution. At the completion of the experiment the enamel slabs were removed, sectioned and subjected to microradiography and microhardnass testing. […] The results were confirmed by microhardness analysis. Plaque was also taken from both sides of the appliance and analysed for calcium phosphate, serine phosphate and peptide T1 using a competitive, quantitative, enzyme-linked immunosorbent assay (ELISA) utilising monoclonal antipeptide T1 antibodies.

CaHPO₄ solubilized [1]: 60 mM | level of peptide in plaque (ELISA) (Intra-Oral Caries Test): at least 0.4 % w/wet wt of plaque
Structure (SMILES): CC[C@H](C)[C@H](NC(=O)[C@H](COP(=O)(O)O)NC(=O)[C@H](CCC(=O)O)NC(=O)[C@H](C)NC(=O)[C@H](CCC(=O)O)NC(=O)[C@H](CCSC)NC(=O)[C@@H](N)CCC(=O)O)C(=O)N[C@@H](COP(=O)(O)O)C(=O)N[C@@H](COP(=O)(O)O)C(=O)N[C@@H](COP(=O)(O)O)C(=O)N[C@@H](CCC(=O)O)C(=O)N[C@@H](CCC(=O)O)C(=O)N[C@H](C(=O)N[C@H](C(=O)N1CCC[C@H]1C(=O)N[C@@H](CC(N)=O)C(=O)N[C@@H](COP(=O)(O)O)C(=O)N[C@H](C(=O)N[C@@H](CCC(=O)O)C(=O)N[C@@H](CCC(N)=O)C(=O)N[C@@H](CCCCN)C(=O)O)C(C)C)C(C)C)[C@@H](C)CC [Phosphopeptide T1] (H-EMEAE[pS]I[pS][pS][pS]EEIVPN[pS]VEQK-OH)
